Assay results reported in the CheMixHub viscosity set.
Several values for one entry are separate records, joined by “and”; a condition that tells them apart may be missing. Equal values may be shown once.

Assay: xn = mol fraction of the nth substance listed

O=C([O-])[O-].[Na+].[Na+] + O
Settings	viscosity
293.15 K, 101.33 kPa, x1 = 0.0032	1.085 mPa·s
293.15 K, 101.33 kPa, x1 = 0.0051	1.152 mPa·s
293.15 K, 101.33 kPa, x1 = 0.008	1.264 mPa·s
293.15 K, 101.33 kPa, x1 = 0.0115	1.414 mPa·s
293.15 K, 101.33 kPa, x1 = 0.0152	1.593 mPa·s
293.15 K, 101.33 kPa, x1 = 0.0197	1.844 mPa·s
293.15 K, 101.33 kPa, x1 = 0.0224	2.015 mPa·s
293.15 K, 101.33 kPa, x1 = 0.0255	2.232 mPa·s
293.15 K, 101.33 kPa, x1 = 0.0288	2.49 mPa·s
293.65 K, 100 kPa, x1 = 0.00502	1.145 mPa·s
298.15 K, 101 kPa, x1 = 0.0002	0.95 mPa·s
298.15 K, 101 kPa, x1 = 0.001	0.95 mPa·s
298.15 K, 101 kPa, x1 = 0.0027	0.99 mPa·s
298.15 K, 101 kPa, x1 = 0.00397	1.01 mPa·s
298.15 K, 101.33 kPa, x1 = 0.0032	0.96 mPa·s
298.15 K, 101.33 kPa, x1 = 0.0051	1.018 mPa·s
298.15 K, 101.33 kPa, x1 = 0.008	1.113 mPa·s
298.15 K, 101.33 kPa, x1 = 0.0115	1.242 mPa·s
298.15 K, 101.33 kPa, x1 = 0.0152	1.395 mPa·s
298.15 K, 101.33 kPa, x1 = 0.0197	1.609 mPa·s
298.15 K, 101.33 kPa, x1 = 0.0224	1.753 mPa·s
298.15 K, 101.33 kPa, x1 = 0.0255	1.937 mPa·s
298.15 K, 101.33 kPa, x1 = 0.0288	2.155 mPa·s
301.15 K, 100 kPa, x1 = 0.0101	1.115 mPa·s and 1.117 mPa·s
303.15 K, 101 kPa, x1 = 0.002	0.836 mPa·s
303.15 K, 101 kPa, x1 = 0.005	0.923 mPa·s
303.15 K, 101 kPa, x1 = 0.009	1.026 mPa·s
303.15 K, 101.33 kPa, x1 = 0.0032	0.864 mPa·s
303.15 K, 101.33 kPa, x1 = 0.0051	0.915 mPa·s
303.15 K, 101.33 kPa, x1 = 0.008	0.998 mPa·s
303.15 K, 101.33 kPa, x1 = 0.0115	1.11 mPa·s
303.15 K, 101.33 kPa, x1 = 0.0152	1.244 mPa·s
303.15 K, 101.33 kPa, x1 = 0.0197	1.429 mPa·s
303.15 K, 101.33 kPa, x1 = 0.0224	1.554 mPa·s
303.15 K, 101.33 kPa, x1 = 0.0255	1.712 mPa·s
303.15 K, 101.33 kPa, x1 = 0.0288	1.9 mPa·s
306.65 K, 100 kPa, x1 = 0.0101	0.987 mPa·s
308.15 K, 101 kPa, x1 = 0.002	0.763 mPa·s
308.15 K, 101 kPa, x1 = 0.005	0.842 mPa·s
308.15 K, 101 kPa, x1 = 0.009	0.931 mPa·s
308.65 K, 100 kPa, x1 = 0.00502	0.825 mPa·s
311.15 K, 100 kPa, x1 = 0.0168	1.1 mPa·s
311.15 K, 100 kPa, x1 = 0.02299	1.331 mPa·s and 1.332 mPa·s
313.15 K, 101 kPa, x1 = 0.0002	0.7 mPa·s
313.15 K, 101 kPa, x1 = 0.001	0.7 mPa·s
313.15 K, 101 kPa, x1 = 0.002	0.694 mPa·s
313.15 K, 101 kPa, x1 = 0.0027	0.72 mPa·s
313.15 K, 101 kPa, x1 = 0.00397	0.74 mPa·s
313.15 K, 101 kPa, x1 = 0.005	0.763 mPa·s
313.15 K, 101 kPa, x1 = 0.009	0.846 mPa·s

COC(C)=O + c1ccccc1
101 kPa
Settings	viscosity [mPa·s]
293.15 K, x1 = 0.5	0.48
298.15 K, x1 = 0.0436	0.587
298.15 K, x1 = 0.1504	0.55
298.15 K, x1 = 0.2504	0.52
298.15 K, x1 = 0.3483	0.494
298.15 K, x1 = 0.441	0.472
298.15 K, x1 = 0.4878	0.462
298.15 K, x1 = 0.5512	0.449
298.15 K, x1 = 0.6492	0.431
298.15 K, x1 = 0.7483	0.415
298.15 K, x1 = 0.8514	0.401
298.15 K, x1 = 0.9486	0.389
298.15 K, x2 = 0.1115	0.363
298.15 K, x2 = 0.1916	0.374
298.15 K, x2 = 0.293	0.388
298.15 K, x2 = 0.3964	0.407
298.15 K, x2 = 0.4965	0.429
298.15 K, x2 = 0.6017	0.454
298.15 K, x2 = 0.6991	0.482
298.15 K, x2 = 0.7955	0.512
298.15 K, x2 = 0.8946	0.548
303.15 K, x1 = 0.5	0.428
308.15 K, x1 = 0.0436	0.513
308.15 K, x1 = 0.1504	0.485
308.15 K, x1 = 0.2504	0.461
308.15 K, x1 = 0.3483	0.441
308.15 K, x1 = 0.441	0.423
308.15 K, x1 = 0.4878	0.415
308.15 K, x1 = 0.5	0.406
308.15 K, x1 = 0.5512	0.405
308.15 K, x1 = 0.6492	0.39
308.15 K, x1 = 0.7483	0.377
308.15 K, x1 = 0.8514	0.365
308.15 K, x1 = 0.9486	0.356
313.15 K, x2 = 0.1115	0.321
313.15 K, x2 = 0.1916	0.33
313.15 K, x2 = 0.293	0.339
313.15 K, x2 = 0.3964	0.354
313.15 K, x2 = 0.4965	0.37
313.15 K, x2 = 0.6017	0.388
313.15 K, x2 = 0.6991	0.407
313.15 K, x2 = 0.7955	0.429
313.15 K, x2 = 0.8946	0.455

COc1ccccc1N + CNC=O
viscosity [mPa·s], 100 kPa
Settings	x2 = 0.0714	x2 = 0.1715	x2 = 0.2636	x2 = 0.3576	x2 = 0.4701	x2 = 0.5625	x2 = 0.6556	x2 = 0.7454	x2 = 0.8325
303.15 K	4.69	4.361	4.058	3.747	3.373	3.065	2.753	2.45	2.155
308.15 K	4.301	4.001	3.725	3.441	3.1	2.817	2.532	2.256	1.986
313.15 K	3.99	3.713	3.456	3.192	2.875	2.613	2.348	2.091	1.841
318.15 K	3.702	3.446	3.209	2.964	2.67	2.428	2.182	1.944	1.711
